Data on nine compounds can be found in patent US8598120B2 (Amylin Pharmaceuticals, LLC, priority 2004, dated 2013).

For experiment [1] the following is noted: in vivo; cited from earlier work.
Experiment [2] is described as follows: Pentagastrin-stimulated gastric acid secretion in gastric fistula rats. Type of experiment: in vivo. To be noted: for ED50 for the acid-suppressive effect: s.c. On the procedure:
The experiments were performed during the light cycle. The rats, fed rat chow (Teklad L M 485, Madison, Wis.), were fasted for approximately 20 hours before experimentation. They were given water ad libitum until the start of the experiment.
The rats (age 9-14 weeks, body mass 264-395 g) were surgically fitted with double gastric fistulae by the supplier (Zivic Miller, Catalog number SCAO3.00). During laparotomy under halothane anesthesia, a grommet-shaped double lumen plug was sutured into the stomach wall. Two silastic 2.3 mm internal diameter (entry and exit) cannulae connected to the plug and communicating with the gastric lumen were tracked through the abdominal wall, subcutaneously to the interscapular region where they were separately exteriorized. The laparotomy wound was closed with clips, the rat was placed in a heated recovery cage for one day with free access to water. Thereafter, the rats were housed singly with free access to water and rat chow until they were subjected to overnight fasting for experiments which were performed on conscious rats, about 10-15 days after surgery.
Gastric catheters were uncapped and attached to flexible PE240 tubing for injection and sampling. To ensure patency of the catheters, 2-3 mL of saline solution at room temperature was injected and immediately withdrawn from the stomach. This was repeated until flow was easy and the effluent was clean. Gastric acid secretion was measured at 10 min intervals by injecting 5 mL saline and 2 mL air via one catheter, then immediately withdrawing the same via the other catheter. In this way errors due to incomplete aspiration of the small, secreted volume could be minimized. Three mL of each gastric aspirate were titrated to pH 7.0 with 0.01 N sodium hydroxide using a pH meter (Beckman model number PHI34 Fullerton, Calif.). The amount of base required for each titration, corrected for the total volume aspirated, was used to calculate the moles of acid in each sample.

The nature of experiment [3]: Ethanol-induced gastric mucosal injury (gastroprotection). To be noted: for ED50 for the gastroprotective effect: s.c. The class given is in vivo, rats. On the procedure: Thirty min after gavage, each rat was anesthetized with 5% halothane, the stomach excised, opened along the lesser curvature and everted to expose the mucosa. The everted stomachs were gently rinsed with saline and immediately graded for mucosal damage by each of 10 observers blinded to the experimental treatment.
Stomachs were excised and graded for injury 30 min after ethanol gavage, as described above. The result is provided in the next to the last bar of FIG. 11A.
Stomachs were excised and graded for injury 30 min after ethanol gavage, as described above, and blood was taken for plasma glucose measurement. The injury response was also measured in glucose-treated rats coadministered a 3 mg intravenous bolus of AC187 (n=9).

A short description of experiment [4]: Ghrelin assay (plasma total and active ghrelin). The class given is in vivo, rats. How it is done: All experiments were performed in the light cycle. Animals were fasted for approximately 20 hours before experimentation. All animals were given free access to water until the start of the experiment. The animals' tails were anesthetized with 20% benzocaine (Hurricaine, Beutlich Pharmaceutical, Waukegan, Ill.), and blood samples were collected from the tail vein. Total and active ghrelin concentrations were measured using Linco RIA kits GHRA-89HK and GHRA-88HK, respectively.
In study 1, HSD rats were subjected to periodic blood sampling from the topically anesthetized tail and ghrelin levels were assayed. […] The blood samples were analyzed for total and active (acylated) ghrelin (Linco).
Blood plasma samples were collected at least at times 0, 10, 20, 30, 60, and 90 min.

The nature of experiment [5]: Food intake assay in overnight fasted mice. The class given is in vivo. To be noted: 25 nmol/kg intraperitoneal. On the procedure: Female NIH/Swiss mice (8-14 weeks old) were group housed with a 12:12 hour light:dark cycle. Water and a standard pelleted mouse chow diet are available ad libitum, except as noted. Animals are fasted starting at approximately 1500 hrs, 1 day prior to experiment.
The effects of treatment on food intake are expressed as % change relative to control.

Setting [6] is: 100 μg, one hour after amylin injection.

Square brackets hold non-standard residues; d marks the D form. * marks the point of attachment. Pentanoyl(4-Me) = CC(C)CCC(=O)*; Aib = CC(C)(N)C(=O)O; For = O=C*

With “CSNLSTCVLGKLSQELHKLQTYPRTNTGSGTP (listed as Oncorhynchus sp.) [salmon calcitonin]”, the “time course of effect in food intake assays” value in experiment [1] is listed as “delayed effect, with peak levels still maintained at 240 minutes”.

In the case of “Amylin: amylin peptide hormone as summarised from the literature (Table 1, background), species not stated (KCNTATCATQRLANFLVHSSNNFGAILSSTNVGSNTY; Islet amyloid polypeptide; UniProt P10997 34-70, looked up)”, in experiment [2] (setting [6]), the “rate of acid secretion as % of the basal rate that preceded pentagastrin injection” value is reported as 32%. Also, the “reduction of pentagastrin-stimulated secretion of acid” value in experiment [2] (setting [6]) is given as 93.4±2.6%. Besides, in experiment [2] (injected 40 min after pentagastrin, 0.1-100 μg), the “gastric acid production (FIG. 10A)” value is listed as “dose-dependently inhibited gastric acid production”. Besides, the “ED50 for the acid-suppressive effect” value in experiment [2] was 41 pmol/kg; in experiment [2] (±0.15 log units) it was 0.05 μg/rat. For the same compound, the “reduction of injury score” value in experiment [3] (doses of 0.3 μg and higher) turned out to be 67%. For the same compound, the “ED50 for the gastroprotective effect” value turned out to be 31 pmol/kg in experiment [3] and 0.036 µg in experiment [3] (±0.40 log units). Also, the “protection of the stomach from mucosal injury (FIG. 11C)” value in experiment [3] (s.c. before ethanol gavage, P<0.05 with doses of 0.1 μg and higher) is listed as “dose-dependently protected the stomach from mucosal injury”. The “onset of effect in food intake assays” value in experiment [1] was at most 30 min. Moreover, the “time course of effect in food intake assays” value in experiment [1] was “its effect tapers off after 60 minutes”.

For the compound “KCNTATCATQRLANFLVRSSNNLGPVLPPTNVGSNTY (listed as Rattus sp.) [rat amylin]”, in experiment [4] (10 μg s.c. 20 min after pentagastrin […], within 1 hour), the “reduction of active ghrelin (FIG. 8A)” value is reported as about 50%. Moreover, the “plasma ghrelin, amylin alone without pentagastrin (FIG. 8B)” value in experiment [4] (30 μg/kg s.c., no pentagastrin) is on record as “plasma ghrelin was reduced compared to the control”. Further, the “total plasma ghrelin compared to saline control (FIGS. 8B, 8C)” value in experiment [4] (30 μg/kg s.c., with or without pentagastrin) was “reduction in total plasma ghrelin”.

With `O=C[C@H](O)[C@@H](O)[C@H](O)[C@H](O)CO` [D-glucose], the “decrease of gastric injury score” value in experiment [3] (250 mg intraperitoneal, t=−30 min from gavage) was found to be 18.5±4.6%.

As for “Isocaproyl-STAVL(Aib)RLSQELRLQTYPRTNTGSGTP ({Pentanoyl(4-Me)}-STAVL[Aib]RLSQELRLQTYPRTNTGSGTP-NH2; SMILES CC(C)CCC(=O)N[C@@H](CO)C(=O)N[C@H](C(=O)N[C@@H](C)C(=O)N[C@H](C(=O)N[C@@H](CC(C)C)C(=O)NC(C)(C)C(=O)N[C@@H](CCCNC(=N)N)C(=O)N[C@@H](CC(C)C)C(=O)N[C@@H](CO)C(=O)N[C@@H](CCC(N)=O)C(=O)N[C@@H](CCC(=O)O)C(=O)N[C@@H](CC(C)C)C(=O)N[C@@H](CCCNC(=N)N)C(=O)N[C@@H](CC(C)C)C(=O)N[C@@H](CCC(N)=O)C(=O)N[C@H](C(=O)N[C@@H](Cc1ccc(O)cc1)C(=O)N1CCC[C@H]1C(=O)N[C@@H](CCCNC(=N)N)C(=O)N[C@H](C(=O)N[C@@H](CC(N)=O)C(=O)N[C@H](C(=O)NCC(=O)N[C@@H](CO)C(=O)NCC(=O)N[C@H](C(=O)N1CCC[C@H]1C(N)=O)[C@@H](C)O)[C@@H](C)O)[C@@H](C)O)[C@@H](C)O)C(C)C)[C@@H](C)O) [Compound 29]”, in experiment [5], the “cumulative food intake compared to vehicle, 30 min” value is 4%; the “cumulative food intake compared to vehicle, 60 min” value is on record as −1%; the “cumulative food intake compared to vehicle, 120 min” value is −25%.

In the case of “KCNTATCATQRLSQELHRLQTYPRTNVGSNTY [Compound 52]”, in experiment [5], the “cumulative food intake compared to vehicle, 30 min” value is −29%; the “cumulative food intake compared to vehicle, 60 min” value was −24%; the “cumulative food intake compared to vehicle, 120 min” value was −23%.

Regarding “KCNTATCVLGRLSQELHRLQTMPRTNTGSNTY [Compound 99]”, in experiment [5], the “cumulative food intake compared to vehicle, 30 min” value is −57%; the “cumulative food intake compared to vehicle, 60 min” value is −55%; the “cumulative food intake compared to vehicle, 120 min” value is −50%.

On to “Isocaproyl-STAVLG[K(For)]LSQELH[K(For)]LQTYPRTNTGSGTP ({Pentanoyl(4-Me)}-STAVLGK(For)LSQELHK(For)LQTYPRTNTGSGTP-NH2; SMILES CC(C)CCC(=O)N[C@@H](CO)C(=O)N[C@H](C(=O)N[C@@H](C)C(=O)N[C@H](C(=O)N[C@@H](CC(C)C)C(=O)NCC(=O)N[C@@H](CCCCNC=O)C(=O)N[C@@H](CC(C)C)C(=O)N[C@@H](CO)C(=O)N[C@@H](CCC(N)=O)C(=O)N[C@@H](CCC(=O)O)C(=O)N[C@@H](CC(C)C)C(=O)N[C@@H](Cc1c[nH]cn1)C(=O)N[C@@H](CCCCNC=O)C(=O)N[C@@H](CC(C)C)C(=O)N[C@@H](CCC(N)=O)C(=O)N[C@H](C(=O)N[C@@H](Cc1ccc(O)cc1)C(=O)N1CCC[C@H]1C(=O)N[C@@H](CCCNC(=N)N)C(=O)N[C@H](C(=O)N[C@@H](CC(N)=O)C(=O)N[C@H](C(=O)NCC(=O)N[C@@H](CO)C(=O)NCC(=O)N[C@H](C(=O)N1CCC[C@H]1C(N)=O)[C@@H](C)O)[C@@H](C)O)[C@@H](C)O)[C@@H](C)O)C(C)C)[C@@H](C)O) [Compound 30]”, for which, in experiment [5], the “cumulative food intake compared to vehicle, 30 min” value is recorded as −1%; the “cumulative food intake compared to vehicle, 60 min” value is given as −2%; the “cumulative food intake compared to vehicle, 120 min” value is recorded as −19%.

Take “CSNLSACVLGRLSQELHRLQTYPRTNTGSNTY [Compound 23]”: in experiment [5], the “cumulative food intake compared to vehicle, 30 min” value stood at 8%; the “cumulative food intake compared to vehicle, 60 min” value is on record as 0%; the “cumulative food intake compared to vehicle, 120 min” value is on record as −19%. Also, the “cumulative food intake compared to vehicle, 180 min” value in experiment [5] (180 min) is −12%.
